In brackets after ≈: the same amount, converted by molar mass.
System: Mycobacterium tuberculosis H37Rv (ATCC: 25177)
Experiment: Resazurin Microplate Assay (REMA), antitubercular activity, H37Rv
Format: cell-based
Conditions: Middlebrook 7H9 broth, 8 days at 37° C. then resazurin overnight; for MIC: Mycobacterium tuberculosis, 192 h, read-out: Antitubercular activity against Mycobacterium tuberculosis H37Rv (MIC)

Molecule | MIC | Antitubercular activity against Mycobacterium tuberculosis H37Rv (MIC)
COC(=O)c1c(C(=O)OC)c2c(Br)cc3ccccc3n2c1C(=O)c1ccc(OC)cc1 [QUIN-KNV1, Dimethyl 4-bromo-1-(4-methoxybenzoyl)pyrrolo[1,2-a]quinoline-2,3-dicarboxylate] | 0.5 µg/mL (≈ 1.01 µM) | –
CCOC(=O)c1cc(C(=O)c2ccc(OC)cc2)n2c1c(Br)cc1ccccc12 [QUIN-KNV2, Ethyl 4-bromo-1-(4-methoxybenzoyl)pyrrolo[1,2-a]quinoline-3-carboxylate] | 1 µg/mL (≈ 2.21 µM) | –
COC(=O)c1c(C(=O)OC)c2c(Br)cc3ccccc3n2c1C(=O)c1ccc(Cl)cc1 [QUIN-KNV3, Dimethyl 4-bromo-1-(4-chlorobenzoyl)pyrrolo[1,2-a]quinoline-2,3-dicarboxylate] | 1 µg/mL (≈ 2 µM) | –
CCOC(=O)c1cc(C(=O)c2ccc(Cl)cc2)n2c1c(Br)cc1ccccc12 [QUIN-KNV4, Ethyl 4-bromo-1-(4-chlorobenzoyl)pyrrolo[1,2-a]quinoline-3-carboxylate] | 8 µg/mL (≈ 17.5 µM) | –
COC(=O)c1c(C(=O)OC)c2c(Br)cc3ccccc3n2c1C(=O)c1ccc(Br)cc1 [QUIN-KNV5, Dimethyl 4-bromo-1-(4-bromobenzoyl)pyrrolo[1,2-a]quinoline-2,3-dicarboxylate] | 0.5 µg/mL (≈ 0.917 µM) | –
CCOC(=O)c1cc(C(=O)c2ccc(Br)cc2)n2c1c(Br)cc1ccccc12 [QUIN-KNV6, Ethyl 4-bromo-1-(4-bromobenzoyl)pyrrolo[1,2-a]quinoline-3-carboxylate] | 2 µg/mL (≈ 3.99 µM) | –
COC(=O)c1c(C(=O)OC)c2c(Br)cc3ccccc3n2c1C(=O)c1ccc(F)cc1 [QUIN-KNV7, Dimethyl 4-bromo-1-(4-fluorobenzoyl)pyrrolo[1,2-a]quinoline-2,3-dicarboxylate] | 16 µg/mL (≈ 33 µM) | –
CCOC(=O)c1cc(C(=O)c2ccc(F)cc2)n2c1c(Br)cc1ccccc12 [QUIN-KNV8, Ethyl 4-bromo-1-(4-fluorobenzoyl)pyrrolo[1,2-a]quinoline-3-carboxylate] | 1 µg/mL (≈ 2.27 µM) | –
COC(=O)c1c(C(=O)OC)c2c(Br)cc3ccccc3n2c1C(=O)c1ccc(C#N)cc1 [QUIN-KNV9, Dimethyl 4-bromo-1-(4-cyanobenzoyl)pyrrolo[1,2-a]quinoline-2,3-dicarboxylate] | 8 µg/mL (≈ 16.3 µM) | –
CCOC(=O)c1cc(C(=O)c2ccc(C#N)cc2)n2c1c(Br)cc1ccccc12 [QUIN-KNV10, Ethyl 4-bromo-1-(4-cyanobenzoyl)pyrrolo[1,2-a]quinoline-3-carboxylate] | 8 µg/mL (≈ 17.9 µM) | –
COC(=O)c1c(C(=O)OC)c2c(Br)cc3ccccc3n2c1C(=O)c1ccccc1 [QUIN-KNV11, Dimethyl 1-benzoyl-4-bromopyrrolo[1,2-a]quinoline-2,3-dicarboxylate] | 32 µg/mL (≈ 68.6 µM) | –
Ethyl 4-bromo-1-(2-nitrobenzoyl)pyrrolo[1,2-a]quinoline-3-carboxylate [QUIN-KNV12] | – | 1 µg/mL

— US11919900B1 (priority 2023, dated 2024)
